In publication PMC9532703, “A novel small molecule RK-019 inhibits FGFR2-amplification gastric cancer cell proliferation and induces apoptosis in vitro and in vivo” (Frontiers in Pharmacology, 2022):

How the values were obtained:
Test in all cases: Kinase selectivity panel
Assay type in all cases: biochemical
Conditions in all cases: read-out: Inhibition(%) @ 1 µM RK-019
Ret (V804L)(h) = molecular target: T1, Ret (V804L)(h) (Homo sapiens, UniProt P07949, V804L)
T1 construct: purchased Eurofins Discovery Services (KinaseProfiler)
How it was run: (§1)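 Recombinant human kinase incubated with 1 µM compound; ATP-site competition binding quantified in vitro as inhibition ratio.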

Ros(h) = molecular target: T2, Ros(h) (Homo sapiens, UniProt P08922)
T2 construct: purchased Eurofins Discovery Services (KinaseProfiler)
How it was run: as §1

SLK(h) = molecular target: T3, SLK(h) (Homo sapiens, UniProt Q9H2G2)
T3 construct: purchased Eurofins Discovery Services (KinaseProfiler)
How it was run: as §1

PhKγ2(h) = molecular target: T4, PhKγ2(h) (Homo sapiens, UniProt P15735)
T4 construct: purchased Eurofins Discovery Services (KinaseProfiler)
How it was run: as §1

SBK1(h) = molecular target: T5, SBK1(h) (Homo sapiens, UniProt Q52WX2)
T5 construct: purchased Eurofins Discovery Services (KinaseProfiler)
How it was run: as §1

GCK(h) = molecular target: T6, GCK(h) (Homo sapiens, UniProt Q12851)
T6 construct: purchased Eurofins Discovery Services (KinaseProfiler)
How it was run: as §1

STK25(h) = molecular target: T7, STK25(h) (Homo sapiens, UniProt O00506)
T7 construct: purchased Eurofins Discovery Services (KinaseProfiler)
How it was run: as §1

CaMKK2(h) = molecular target: T8, CaMKK2(h) (Homo sapiens, UniProt Q96RR4)
T8 construct: purchased Eurofins Discovery Services (KinaseProfiler)
How it was run: as §1

IGF-1R(h), activated = molecular target: T9, IGF-1R(h), activated (Homo sapiens, UniProt P08069)
T9 construct: purchased Eurofins Discovery Services (KinaseProfiler)
How it was run: as §1

Itk(h) = molecular target: T10, Itk(h) (Homo sapiens, UniProt Q08881)
T10 construct: purchased Eurofins Discovery Services (KinaseProfiler)
How it was run: as §1

MELK(h) = molecular target: T11, MELK(h) (Homo sapiens, UniProt Q14680)
T11 construct: purchased Eurofins Discovery Services (KinaseProfiler)
How it was run: as §1

PKCβI(h) = molecular target: T12, PKCβI(h) (Homo sapiens, UniProt P05771)
T12 construct: purchased Eurofins Discovery Services (KinaseProfiler)
How it was run: as §1

[1] = molecular target: T13, PI3 Kinase (p110a/p65a)(h) (Homo sapiens, UniProt P42336)
T13 construct: purchased Eurofins Discovery Services (KinaseProfiler)
How it was run: as §1

CDK17/cyclinY(h) = molecular target: T14, CDK17/cyclinY(h) (Homo sapiens, UniProt Q00537)
T14 construct: purchased Eurofins Discovery Services (KinaseProfiler)
How it was run: as §1

MAP4K5(h) = molecular target: T15, MAP4K5(h) (Homo sapiens, UniProt Q9Y4K4)
T15 construct: purchased Eurofins Discovery Services (KinaseProfiler)
How it was run: as §1

DRAK2(h) = molecular target: T16, DRAK2(h) (Homo sapiens, UniProt O94768)
T16 construct: purchased Eurofins Discovery Services (KinaseProfiler)
How it was run: as §1

GRK5(h) = molecular target: T17, GRK5(h) (Homo sapiens, UniProt P34947)
T17 construct: purchased Eurofins Discovery Services (KinaseProfiler)
How it was run: as §1

CDK3/cyclinE(h) = molecular target: T18, CDK3/cyclinE(h) (Homo sapiens, UniProt Q00526)
T18 construct: purchased Eurofins Discovery Services (KinaseProfiler)
How it was run: as §1

CDKL4(h) = molecular target: T19, CDKL4(h) (Homo sapiens, UniProt Q5MAI5)
T19 construct: purchased Eurofins Discovery Services (KinaseProfiler)
How it was run: as §1

IRR(h) = molecular target: T20, IRR(h) (Homo sapiens, UniProt P14616)
T20 construct: purchased Eurofins Discovery Services (KinaseProfiler)
How it was run: as §1

mTOR(h) = molecular target: T21, mTOR(h) (Homo sapiens, UniProt P42345)
T21 construct: purchased Eurofins Discovery Services (KinaseProfiler)
How it was run: as §1

PAK6(h) = molecular target: T22, PAK6(h) (Homo sapiens, UniProt Q9NQU5)
T22 construct: purchased Eurofins Discovery Services (KinaseProfiler)
How it was run: as §1

Flt1(h) = molecular target: T23, Flt1(h) (Homo sapiens, UniProt P17948)
T23 construct: purchased Eurofins Discovery Services (KinaseProfiler)
How it was run: as §1

PDGFRα(V561D)(h) = molecular target: T24, PDGFRα(V561D)(h) (Homo sapiens, UniProt P16234, V561D)
T24 construct: purchased Eurofins Discovery Services (KinaseProfiler)
How it was run: as §1

CDK5/p25(h) = molecular target: T25, CDK5/p25(h) (Homo sapiens, UniProt Q00535)
T25 construct: purchased Eurofins Discovery Services (KinaseProfiler)
How it was run: as §1

DYRK1B(h) = molecular target: T26, DYRK1B(h) (Homo sapiens, UniProt Q9Y463)
T26 construct: purchased Eurofins Discovery Services (KinaseProfiler)
How it was run: as §1

PrKX(h) = molecular target: T27, PrKX(h) (Homo sapiens, UniProt P51817)
T27 construct: purchased Eurofins Discovery Services (KinaseProfiler)
How it was run: as §1

Abl(T315I)(h) = molecular target: T28, Abl(T315I)(h) (Homo sapiens, UniProt P00519, T315I)
T28 construct: purchased Eurofins Discovery Services (KinaseProfiler)
How it was run: as §1

NLK(h) = molecular target: T29, NLK(h) (Homo sapiens, UniProt Q9UBE8)
T29 construct: purchased Eurofins Discovery Services (KinaseProfiler)
How it was run: as §1

MLK2(h) = molecular target: T30, MLK2(h) (Homo sapiens, UniProt Q02779)
T30 construct: purchased Eurofins Discovery Services (KinaseProfiler)
How it was run: as §1

ACTR2(h) = molecular target: T31, ACTR2(h) (Homo sapiens, UniProt P27037)
T31 construct: purchased Eurofins Discovery Services (KinaseProfiler)
How it was run: as §1

[2] = molecular target: T32, PI3 Kinase (p110b/p85a)(h) (Homo sapiens, UniProt P42338)
T32 construct: purchased Eurofins Discovery Services (KinaseProfiler)
How it was run: as §1

CDK2/cyclinA(h) = molecular target: T33, CDK2/cyclinA(h) (Homo sapiens, UniProt P24941)
T33 construct: purchased Eurofins Discovery Services (KinaseProfiler)
How it was run: as §1

EphB2(h) = molecular target: T34, EphB2(h) (Homo sapiens, UniProt P29323)
T34 construct: purchased Eurofins Discovery Services (KinaseProfiler)
How it was run: as §1

TAK1(h) = molecular target: T35, TAK1(h) (Homo sapiens, UniProt O43318)
T35 construct: purchased Eurofins Discovery Services (KinaseProfiler)
How it was run: as §1

JNK1α1(h) = molecular target: T36, JNK1α1(h) (Homo sapiens, UniProt P45983)
T36 construct: purchased Eurofins Discovery Services (KinaseProfiler)
How it was run: as §1

ARK5(h) = molecular target: T37, ARK5(h) (Homo sapiens, UniProt O60285)
T37 construct: purchased Eurofins Discovery Services (KinaseProfiler)
How it was run: as §1

T14 sequence (Q00537 whole entry): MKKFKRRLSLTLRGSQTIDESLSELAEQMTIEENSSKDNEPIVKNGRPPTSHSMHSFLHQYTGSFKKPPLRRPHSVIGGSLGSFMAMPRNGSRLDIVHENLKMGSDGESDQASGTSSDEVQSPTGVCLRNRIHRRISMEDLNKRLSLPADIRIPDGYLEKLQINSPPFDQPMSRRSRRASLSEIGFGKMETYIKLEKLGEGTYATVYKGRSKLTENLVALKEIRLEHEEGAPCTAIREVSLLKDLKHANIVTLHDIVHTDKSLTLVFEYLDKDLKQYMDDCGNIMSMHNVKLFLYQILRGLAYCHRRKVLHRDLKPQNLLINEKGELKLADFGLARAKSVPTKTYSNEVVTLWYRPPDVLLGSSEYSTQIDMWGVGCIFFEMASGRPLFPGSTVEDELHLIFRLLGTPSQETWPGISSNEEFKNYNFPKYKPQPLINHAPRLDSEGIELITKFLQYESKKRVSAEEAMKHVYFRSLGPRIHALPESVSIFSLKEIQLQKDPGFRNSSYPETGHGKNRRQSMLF
T14 sequence (Q8ND76 whole entry partner): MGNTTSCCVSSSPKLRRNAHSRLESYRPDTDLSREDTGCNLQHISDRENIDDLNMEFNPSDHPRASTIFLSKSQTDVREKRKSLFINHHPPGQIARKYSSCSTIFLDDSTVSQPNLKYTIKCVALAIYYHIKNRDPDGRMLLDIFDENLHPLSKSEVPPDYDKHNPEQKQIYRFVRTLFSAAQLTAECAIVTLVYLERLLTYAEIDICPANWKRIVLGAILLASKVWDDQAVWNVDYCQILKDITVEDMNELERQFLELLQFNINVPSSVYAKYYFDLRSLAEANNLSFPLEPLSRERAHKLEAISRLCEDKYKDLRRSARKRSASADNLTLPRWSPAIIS
T2 sequence (P08922 28-2347): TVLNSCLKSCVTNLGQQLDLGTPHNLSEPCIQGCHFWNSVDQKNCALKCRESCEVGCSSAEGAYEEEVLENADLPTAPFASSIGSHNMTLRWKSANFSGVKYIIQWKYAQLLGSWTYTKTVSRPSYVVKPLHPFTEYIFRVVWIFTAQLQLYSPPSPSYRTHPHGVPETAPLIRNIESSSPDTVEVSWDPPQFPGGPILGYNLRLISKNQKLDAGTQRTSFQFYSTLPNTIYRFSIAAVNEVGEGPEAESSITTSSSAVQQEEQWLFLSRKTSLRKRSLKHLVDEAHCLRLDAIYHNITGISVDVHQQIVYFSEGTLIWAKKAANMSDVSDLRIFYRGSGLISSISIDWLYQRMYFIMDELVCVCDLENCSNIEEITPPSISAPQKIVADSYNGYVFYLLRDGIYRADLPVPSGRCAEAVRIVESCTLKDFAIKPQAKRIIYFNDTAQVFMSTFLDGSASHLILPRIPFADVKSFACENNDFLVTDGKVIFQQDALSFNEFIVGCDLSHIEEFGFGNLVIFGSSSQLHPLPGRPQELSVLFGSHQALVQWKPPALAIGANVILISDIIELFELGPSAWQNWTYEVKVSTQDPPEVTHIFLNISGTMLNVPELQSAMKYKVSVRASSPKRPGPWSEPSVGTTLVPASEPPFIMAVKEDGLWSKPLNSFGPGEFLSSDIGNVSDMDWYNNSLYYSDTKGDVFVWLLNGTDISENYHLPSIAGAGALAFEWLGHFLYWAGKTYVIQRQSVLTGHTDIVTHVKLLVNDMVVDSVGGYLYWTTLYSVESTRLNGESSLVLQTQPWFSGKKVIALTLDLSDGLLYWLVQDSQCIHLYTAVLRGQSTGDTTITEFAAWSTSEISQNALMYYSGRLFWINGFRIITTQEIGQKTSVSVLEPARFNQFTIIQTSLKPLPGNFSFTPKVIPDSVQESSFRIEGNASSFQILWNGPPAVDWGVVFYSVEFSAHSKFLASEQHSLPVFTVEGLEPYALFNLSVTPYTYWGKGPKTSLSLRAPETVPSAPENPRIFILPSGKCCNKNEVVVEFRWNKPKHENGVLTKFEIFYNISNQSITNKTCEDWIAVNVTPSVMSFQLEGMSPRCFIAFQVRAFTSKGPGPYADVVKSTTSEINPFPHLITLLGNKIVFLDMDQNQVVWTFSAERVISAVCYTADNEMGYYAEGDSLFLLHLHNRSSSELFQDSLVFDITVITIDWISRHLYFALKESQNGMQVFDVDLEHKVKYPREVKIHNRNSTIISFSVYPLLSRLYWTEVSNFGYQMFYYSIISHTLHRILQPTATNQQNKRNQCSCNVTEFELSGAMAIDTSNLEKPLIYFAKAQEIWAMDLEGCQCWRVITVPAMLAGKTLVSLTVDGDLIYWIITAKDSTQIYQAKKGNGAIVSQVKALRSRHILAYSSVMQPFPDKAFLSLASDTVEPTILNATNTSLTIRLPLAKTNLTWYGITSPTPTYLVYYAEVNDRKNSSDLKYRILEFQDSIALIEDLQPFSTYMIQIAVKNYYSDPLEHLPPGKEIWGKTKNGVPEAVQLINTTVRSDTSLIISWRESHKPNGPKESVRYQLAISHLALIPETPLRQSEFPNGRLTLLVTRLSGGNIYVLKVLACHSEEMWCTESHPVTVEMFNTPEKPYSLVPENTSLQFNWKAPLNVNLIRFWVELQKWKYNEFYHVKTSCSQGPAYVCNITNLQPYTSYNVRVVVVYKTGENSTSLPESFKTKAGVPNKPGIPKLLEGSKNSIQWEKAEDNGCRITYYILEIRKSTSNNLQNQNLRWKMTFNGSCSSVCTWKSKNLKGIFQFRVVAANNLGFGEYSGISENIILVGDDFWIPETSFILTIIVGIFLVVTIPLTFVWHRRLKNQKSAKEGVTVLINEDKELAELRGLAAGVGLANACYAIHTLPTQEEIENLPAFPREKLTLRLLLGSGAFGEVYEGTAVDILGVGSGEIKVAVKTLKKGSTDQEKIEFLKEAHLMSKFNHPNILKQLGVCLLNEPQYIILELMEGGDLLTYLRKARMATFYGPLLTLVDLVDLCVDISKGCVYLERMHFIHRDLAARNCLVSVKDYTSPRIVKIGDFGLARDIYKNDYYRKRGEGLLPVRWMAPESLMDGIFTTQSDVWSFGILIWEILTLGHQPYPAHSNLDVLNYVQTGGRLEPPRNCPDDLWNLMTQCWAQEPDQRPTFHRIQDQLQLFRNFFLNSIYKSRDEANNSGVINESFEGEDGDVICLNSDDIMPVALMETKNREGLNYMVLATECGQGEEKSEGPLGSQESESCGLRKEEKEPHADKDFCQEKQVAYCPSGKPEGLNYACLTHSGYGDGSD
T9 sequence (P08069 31-1367): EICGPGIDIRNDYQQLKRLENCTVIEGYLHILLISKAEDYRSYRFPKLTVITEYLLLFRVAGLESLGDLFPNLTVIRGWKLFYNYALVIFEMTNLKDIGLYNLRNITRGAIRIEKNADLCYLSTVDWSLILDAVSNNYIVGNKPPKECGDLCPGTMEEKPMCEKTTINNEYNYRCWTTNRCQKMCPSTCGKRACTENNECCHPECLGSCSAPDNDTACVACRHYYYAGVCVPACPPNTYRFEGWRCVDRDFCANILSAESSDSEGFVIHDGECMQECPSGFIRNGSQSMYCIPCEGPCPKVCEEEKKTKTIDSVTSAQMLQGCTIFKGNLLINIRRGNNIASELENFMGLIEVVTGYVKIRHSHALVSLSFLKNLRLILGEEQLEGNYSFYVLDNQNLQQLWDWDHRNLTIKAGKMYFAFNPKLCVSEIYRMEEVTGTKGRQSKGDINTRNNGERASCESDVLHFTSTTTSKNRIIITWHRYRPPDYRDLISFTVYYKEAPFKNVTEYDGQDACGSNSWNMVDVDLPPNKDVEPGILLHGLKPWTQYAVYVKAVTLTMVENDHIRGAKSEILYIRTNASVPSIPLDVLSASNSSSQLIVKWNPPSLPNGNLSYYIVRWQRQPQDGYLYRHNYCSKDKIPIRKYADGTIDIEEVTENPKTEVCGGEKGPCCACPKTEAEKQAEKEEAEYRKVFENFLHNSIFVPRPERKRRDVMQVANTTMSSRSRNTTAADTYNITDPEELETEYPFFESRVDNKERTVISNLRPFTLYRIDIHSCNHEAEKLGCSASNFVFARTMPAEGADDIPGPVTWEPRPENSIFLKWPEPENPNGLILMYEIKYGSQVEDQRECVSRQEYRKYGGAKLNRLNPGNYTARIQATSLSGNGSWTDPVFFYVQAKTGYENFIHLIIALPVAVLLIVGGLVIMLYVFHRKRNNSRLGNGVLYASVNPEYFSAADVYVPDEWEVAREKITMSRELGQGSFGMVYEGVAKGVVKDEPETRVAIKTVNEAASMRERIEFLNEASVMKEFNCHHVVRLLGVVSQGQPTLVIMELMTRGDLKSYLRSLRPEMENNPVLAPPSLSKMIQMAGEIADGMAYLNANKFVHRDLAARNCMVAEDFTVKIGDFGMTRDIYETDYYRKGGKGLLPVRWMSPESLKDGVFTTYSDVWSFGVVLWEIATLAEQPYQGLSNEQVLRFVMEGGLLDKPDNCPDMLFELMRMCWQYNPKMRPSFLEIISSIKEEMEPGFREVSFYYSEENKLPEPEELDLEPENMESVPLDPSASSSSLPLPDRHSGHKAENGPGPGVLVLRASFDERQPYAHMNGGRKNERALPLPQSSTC
T17 sequence (P34947 whole entry): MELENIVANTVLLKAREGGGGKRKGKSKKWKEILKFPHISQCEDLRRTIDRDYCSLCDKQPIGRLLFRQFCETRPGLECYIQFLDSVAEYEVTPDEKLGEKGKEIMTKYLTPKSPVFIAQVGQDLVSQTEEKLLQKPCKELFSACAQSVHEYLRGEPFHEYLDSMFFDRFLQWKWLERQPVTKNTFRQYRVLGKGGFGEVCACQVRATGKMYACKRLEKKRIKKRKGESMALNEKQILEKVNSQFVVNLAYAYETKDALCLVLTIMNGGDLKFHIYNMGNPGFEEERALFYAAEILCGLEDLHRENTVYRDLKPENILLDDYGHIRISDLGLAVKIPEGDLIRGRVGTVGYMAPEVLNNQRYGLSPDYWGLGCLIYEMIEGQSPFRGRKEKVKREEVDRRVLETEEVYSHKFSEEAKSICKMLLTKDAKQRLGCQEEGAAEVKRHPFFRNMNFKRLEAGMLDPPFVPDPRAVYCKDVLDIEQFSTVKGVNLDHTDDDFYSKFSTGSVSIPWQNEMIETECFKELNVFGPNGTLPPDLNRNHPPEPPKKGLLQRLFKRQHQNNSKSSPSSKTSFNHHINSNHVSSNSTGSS

`COc1cc(OC)cc(N(CCN[C@H](C)CO)c2ccc3ncc(-c4cnn(C)c4)c(=O)n3c2)c1` [RK-019, (R)-7-((3,5-dimethoxyphenyl) (2-((1-hydroxypropan-2-yl)amino)ethyl)amino)-3-(1-methyl-1H-pyrazol-4-yl)-4H-pyrido [1,2-a]pyrimidin-4-one] gave an activity at 1 µM (Ret (V804L)(h)) of 92%, an activity at 1 µM (Ros(h)) of 101% and an activity at 1 µM (SLK(h)) of 99%. For the same compound, the activity at 1 µM (PhKγ2(h)) was 88%, the activity at 1 µM (SBK1(h)) was 96% and the activity at 1 µM (GCK(h)) was 98%. For the same compound, the activity at 1 µM (STK25(h)) was 66%, the activity at 1 µM (CaMKK2(h)) was 95% and the activity at 1 µM (IGF-1R(h), activated) was 101%. For the same compound, the activity at 1 µM (Itk(h)) was 104%, the activity at 1 µM (MELK(h)) was 104% and the activity at 1 µM (PKCβI(h)) was 102%. It also gave an activity at 1 µM [1] of 94%, an activity at 1 µM (CDK17/cyclinY(h)) of 104% and an activity at 1 µM (MAP4K5(h)) of 103%. The activity at 1 µM (DRAK2(h)) was 96%, the activity at 1 µM (GRK5(h)) was 135% and the activity at 1 µM (CDK3/cyclinE(h)) was 90%. For the same compound, the activity at 1 µM (CDKL4(h)) was 90%, the activity at 1 µM (IRR(h)) was 104% and the activity at 1 µM (mTOR(h)) was 105%. For the same compound, the activity at 1 µM (PAK6(h)) was 96%, the activity at 1 µM (Flt1(h)) was 29% and the activity at 1 µM (PDGFRα(V561D)(h)) was 1%. For the same compound, the activity at 1 µM (CDK5/p25(h)) was 112%, the activity at 1 µM (DYRK1B(h)) was 97% and the activity at 1 µM (PrKX(h)) was 98%. For the same compound, the activity at 1 µM (Abl(T315I)(h)) was 66%, the activity at 1 µM (NLK(h)) was 86% and the activity at 1 µM (MLK2(h)) was 103%. The activity at 1 µM (ACTR2(h)) was 85%, the activity at 1 µM [2] was 100% and the activity at 1 µM (CDK2/cyclinA(h)) was 115%. The activity at 1 µM (EphB2(h)) was 96%, the activity at 1 µM (TAK1(h)) was 102% and the activity at 1 µM (JNK1α1(h)) was 96%. It also gave an activity at 1 µM (ARK5(h)) of 146%.
